How the values were obtained:
REH [1] = assay: Cell viability (CellTiter Glo), library of cancer drugs, individual or sample compression with randomized (alphabetical) pools, REH; type: cell-based; conditions: REH; for DRS: None (measured individually); for DRS from deconvolution: Samples, 7 Pick 3 randomized (alphabetical) sample pools
Summary of the method: (§1)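 Cells cultured with each drug individually at 1 nM–10 μM; viability by ATP luminescence (CellTiter Glo) to build dose-response curves and DRS. Samples read singly or pooled alphabetically (each drug in 3 of 7 pools), with pooled DRS recovered by additivity-based SUM deconvolution.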

REH [2] = assay: Cell viability (CellTiter Glo), compressed perturbation pools with informed pool design, SUM-based deconvolution, REH; design: scale not given here
Procedure: (§2) Total cell viability was measured for each sample using an ATP-based luminescence assay (i.e., CellTiter Glo). Each cancer drug was then screened at multiple concentrations ranging from one nM to ten μM in order to generate a dose-response curve and calculate a DRS for each cancer cell line.
(§3) Each cancer drug was cultured with target cells individually. At the end of the screen, samples were either analyzed individually or compressed into pools for analysis. The library was compressed alphabetically into ten cohorts, each of which contained seven cancer drugs present in three out of the seven pools, as shown in Table VII. Said another way, the screening platform 210 generated a “7 pick 3” compressed library by assigning the cancer drugs among different pools. […] The library was also compressed into ten cohorts with pools designed based on information known about each cancer drug, as shown in Table VIII. After cell viability measurement and DRS calculation, the DRS of each cancer drug in the samples generated based on the pools were deconvoluted and compared to the DRS for each cancer drug measured individually.
(§4) In parallel to the exemplary sample compression screen covered in Table VII, perturbations were compressed into pools and then screened. The pools were designed using drug class as a feature with two compression rules (or simply “rules”). The first rule required that drugs from the same class be separated into different cohorts (i.e., mutually exclusive groups of pools). The second rule separated PI3K pathway inhibitors from MAPK pathway inhibitors, as inhibiting these pathways in parallel is known to be synergistic but has not been clinically effective due to dose-limiting toxicities. A benefit of compressing perturbations is the ability to measure additive, antagonistic, and synergistic effects between drugs in the same pool. However, these effects can negatively impact deconvolution of individual drug effects. Therefore, combinations of drugs for which evidence of clinical toxicity exists can be assigned to different pools in accordance with an informed pooling operation. As new preclinical or clinical evidence of toxic combinations becomes available, the rules implemented by the screening platform 210—and more specifically, its algorithm for compressing members of a library—can be updated accordingly.
(§5) In SUM-based deconvolution, an assumption of additivity is used to quantify the individual effects of each perturbation on each target. Additivity implies that each perturbation effect on each target is positively contributing to the overall effect measured for that pool. This is an accurate assumption for certain experiments, such as when targets or samples are compressed. When targets are pooled—or when samples containing different targets are pooled—the effect of each perturbation on each individual target is diluted. In other words, each perturbation has an isolated effect on a target in culture, and the sum total of the isolated effects are measured when pooled. Therefore, SUM-based deconvolution breaks down the sum total measured for a pool and assigns estimated fractional effects to each compressed perturbation or target in the pool. The screening platform 210 used SUM-based deconvolution for all target and sample compression experiments described above.
(§6) As mentioned above, SUM-based deconvolution uses the overlapping pool design to identify relative relationships and ranges for the individual effects of each perturbation. When the overlapping pool design is not sufficient to solve for the polynomials representing perturbation effects, an anchor perturbation can be identified by the screening platform 210 based on rank order and assigned an effect size of zero. The anchor perturbation may be the lowest ranked perturbation in the rank order. This then enables the screening platform 210 to solve for the polynomials for the remaining perturbations.

MOLT-4 [3] = assay: Cell viability (CellTiter Glo), compressed perturbation pools with informed pool design, SUM-based deconvolution, MOLT-4; design: scale not given here
Procedure: as §2, §3, §4, §5, §6

REH [4] = assay: Cell viability (CellTiter Glo), compressed perturbation pools with informed pool design, MAX-based deconvolution, REH; conditions: for DRS / DRS from MAX-based deconvolution / DRS, REH, MAX / top hit of cohort (deconvoluted effect size): REH; for DRS: None (measured individually), informed pool design table; for DRS from MAX-based deconvolution: Samples, 7 Pick 3 informed perturbation pools; for DRS, REH, MAX: compressed perturbation pools, informed pool design, MAX-based deconvolution; for top hit of cohort (deconvoluted effect size): informed perturbation pools;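 as to DRS from MAX-based deconvolution: higher DRS means a larger drug effect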
Summary of the method: (§7)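 Per-drug DRS recovered by MAX deconvolution, which assumes the strongest pool member masks the rest; after ranking, each drug in turn takes the DRS of the lowest-signal pool containing it, and leftovers score zero. Pools built from drug class and known toxic combinations; dose-response spans 1 nM to 10 μM, read by ATP-based luminescence.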

MOLT-4 [5] = assay: Cell viability (CellTiter Glo), compressed perturbation pools with informed pool design, MAX-based deconvolution, MOLT-4; conditions: for DRS: MOLT-4, None (measured individually), informed pool design table; for DRS from MAX-based deconvolution: MOLT-4, Samples, 7 Pick 3 informed perturbation pools; for DRS, MOLT-4, MAX: compressed perturbation pools, informed pool design, MAX-based deconvolution; for top hit of cohort (deconvoluted effect size): informed perturbation pools;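 as to DRS from MAX-based deconvolution: higher DRS means a larger drug effect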
Summary of the method: as §7

MOLT-4 [6] = assay: Cell viability (CellTiter Glo), library of cancer drugs, individual or sample compression with randomized (alphabetical) pools, MOLT-4; type: cell-based; conditions: for DRS: MOLT-4, None (measured individually); for DRS from deconvolution: MOLT-4, Samples, 7 Pick 3 randomized (alphabetical) sample pools
Summary of the method: as §1

Compound | DRS (REH [1]) | DRS from deconvolution (REH [1]) | DRS, REH, SUM (REH [2]) | DRS, MOLT-4, SUM (MOLT-4 [3]) | DRS (REH [4]) | DRS from MAX-based deconvolution (REH [4]) | DRS, REH, MAX (REH [4]) | DRS (MOLT-4 [5]) | DRS from MAX-based deconvolution (MOLT-4 [5]) | DRS, MOLT-4, MAX (MOLT-4 [5]) | DRS (MOLT-4 [6]) | DRS from deconvolution (MOLT-4 [6]) | effect size relative to everolimus (MOLT-4 [5]; MOLT, Cohort 10) | top hit of cohort (deconvoluted effect size) (REH [4]) | top hit of cohort (deconvoluted effect size) (MOLT-4 [5]; MOLT) | effect on REH relative to MOLT cell line (REH [4])
COc1cc2nccc(Oc3ccc(NC(=O)NC4CC4)c(Cl)c3)c2cc1C(N)=O [Lenvatinib] | 0.14 | 0.00 | 0.00 | 0.89 | 0.00 | 0.00 | 0.00 | 0.00 | 0.00 | 0.00 | 0.74 | 0.77 |  |  |  | 
C[C@@H](Oc1cc(-c2cnn(C3CCNCC3)c2)cnc1N)c1c(Cl)ccc(F)c1Cl [Crizotinib] | 0.23 | 015 | 0.00 | 3.06 | 0.27 | 0.00 | 0.00 | 0.27 | 0.27 | 0.00 | 0.23 | 0.28 |  |  |  | 
COc1cc2ncnc(Nc3ccc(F)c(Cl)c3)c2cc1NC(=O)/C=C/CN1CCCCC1 [Dacomitinib] | 3.10 | 3.15 | 1.33 | 0.99 | 0.00 | 0.00 | 0.00 | 0.00 | 0.00 | 0.00 | 2.60 | 2.53 |  |  |  | 
Cc1ccc(Nc2nccc(N(C)c3ccc4c(C)n(C)nc4c3)n2)cc1S(N)(=O)=O [Pazopanib] | 5.88 | 5.90 | 8.02 | 2.41 | 3.93 | 4.01 | 7.06 | 3.50 | 0.00 | 5.39 | 0.68 | 0.00 |  |  |  | 
CCOc1cc2ncc(C#N)c(Nc3ccc(OCc4ccccn4)c(Cl)c3)c2cc1NC(=O)/C=C/CN(C)C [Neratinib] | 2.58 | 2.32 | 0.37 | 2.74 | 29.39 | 34.11 | 3.06 | 29.89 | 35.00 | 4.35 | 4.08 | 4.32 | larger effect size than everolimus |  |  | 
CC(C)C[C@H](NC(=O)[C@H](Cc1ccccc1)NC(=O)c1cnccn1)B(O)O [Bortezomib] | 27.70 | 28.16 | 22.86 | 23.95 | 2.40 | 2.90 | 31.61 | 2.50 | 2.76 | 28.24 | 25.00 | 25.41 |  | top hit | top hit | 
CCN1CCN(Cc2ccc(Nc3ncc(F)c(-c4cc(F)c5nc(C)n(C(C)C)c5c4)n3)nc2)CC1 [Abemaciclib] | 2.40 | 2.57 | 2.69 | 1.08 | 13.34 | 15.14 | 0.00 | 15.70 | 17.03 | 0.00 | 0.50 | 0.55 |  |  |  | 
CO[C@H]1C[C@@H]2CC[C@@H](C)[C@@](O)(O2)C(=O)C(=O)N2CCCC[C@H]2C(=O)O[C@H]([C@H](C)C[C@@H]2CC[C@@H](OC(=O)C(C)(CO)CO)[C@H](OC)C2)CC(=O)[C@H](C)/C=C(\C)[C@@H](O)[C@@H](OC)C(=O)[C@H](C)C[C@H](C)/C=C/C=C/C=C/1C [Temsirolimus] | 8.19 | 8.71 | 9.71 | 2.54 | 8.19 | 9.23 | 9.23 | 2.99 | 3.88 | 3.88 | 2.99 | 3.21 |  | top hit | top hit | much larger effects on the REH cell line
NC(=O)c1cccc2cn(-c3ccc([C@@H]4CCCNC4)cc3)nc12 [Niraparib] | 0.70 | 0.59 | 0.00 | 0.00 | 4.42 | 5.23 | 0.00 | 6.12 | 8.06 | 0.00 | 4.30 | 4.85 |  |  |  | 
O=C(/C=C\n1cnc(-c2cc(C(F)(F)F)cc(C(F)(F)F)c2)n1)NNc1cnccn1 [Selinexor] | 21.81 | 21.40 | 26.41 | 24.24 | 2.30 | 2.51 | 23.72 | 0.00 | 0.00 | 24.91 | 24.71 | 25.16 |  | top hit | top hit | 
CO[C@H]1C[C@@H]2CC[C@@H](C)[C@@](O)(O2)C(=O)C(=O)N2CCCC[C@H]2C(=O)O[C@H]([C@H](C)C[C@@H]2CC[C@@H](OCCO)[C@H](OC)C2)CC(=O)[C@H](C)/C=C(\C)[C@@H](O)[C@@H](OC)C(=O)[C@H](C)C[C@H](C)/C=C/C=C/C=C/1C [Everolimus] | 7.39 | 7.70 | 9.02 | 1.42 | 0.23 | 0.00 | 9.02 | 0.23 | 0.00 | 2.51 | 2.19 | 2.35 |  |  |  | much larger effects on the REH cell line
CC[C@H](Nc1ncnc2[nH]cnc12)c1nc2cccc(F)c2c(=O)n1-c1ccccc1 [Idelalisib] | 0.91 | 0.85 | 0.00 | 0.54 | 0.30 | 0.74 | 0.00 | 0.00 | 0.00 | 0.00 | 0.80 | 0.69 |  |  |  | 

Reference: patent US20260378560A1, “APPROACHES TO DESIGNING AND PERFORMING COMPRESSED BIOLOGICAL EXPERIMENTS AND SYSTEMS FOR IMPLEMENTING THE SAME” (EXVIVO LABS INC., priority 2023, published 2026)
